# Several values for one entry are separate records, joined by “and”; a condition that tells them apart may be missing. Identical values can stand only once.
# Legend:
# VUP melanoma cell line [1] = test: Adhesion assay: [51Cr]-VUP cells to laminin; assay type: cell-based
# Procedure: (§1) RGD peptides were plated at a maximum concentration of 200 μM and a minimum concentration of 2 nM. For each RGD peptide sequence, linear peptides (A), cyclic peptides (B), and 4-[^19F]-fluorobenzoyl cyclic peptides (C) were assayed. Each RGD peptide concentration was performed in quadruplicate and each experiment was repeated twice.
# (§2) Plastic 96-well plates (Falcon 3912; Becton Dickinson) were coated with 50 μl substrate (10 μg/ml laminin or 5 μg/ml vitronectin). The plates were incubated at 37° C. in an 8% CO2 atmosphere for 1 hour. Unbound protein was flicked off and the plates were washed with phosphate buffered saline (PBS) and blocked with bovine serum albumin (0.1% w/v BSA)/PBS/0.1% sodium azide) for 1 hour. The plates were then washed with PBS, placed on a bed of ice and 25 μl of peptide was added to the wells.
# (§3) Sodium [^51Cr] chromate was purchased from Amersham International, UK. The solution was made isotonic by the addition of 110 μl 10× Hanks buffered salt solution. 100 μl of this solution (3.7 MBq) was added to 5-10×10^6 cells in 500 μl of serum-containing growth medium. The suspension was incubated at 37° C. for 45 minutes with regular agitation to resuspend the cells. The cells were then washed and spun 3 times with serum-free E4 medium to remove any free [^51Cr]chromium. A trypan blue viability count was performed and the cells were diluted to the necessary volume in serum-free E4 medium (4×10^5 cells/ml).
# (§4) 25 μl (about 10,000 cells) were added to each quadruplicate well and the plates incubated at 37° C. in an 8% CO2 atmosphere for 1 hour. Unbound cells were flicked off and the plates were washed twice with PBS/BSA containing 1 mM CaCl2 and 0.5 mM MgCl2. The plates were dabbed dry and cut into individual wells. The radioactivity associated with each well was determined in a gamma counter (1261 Multigamma; Wallac, Sweden). Quadruplicate 25 μl samples of labeled cells were counted as 100% input values. To determine non-specific binding, the ability of cells to bind BSA-coated wells was also assessed. […]
# (§5) The results were calculated as follows: [formula] […]
# A375M melanoma cell line [2] = test: Adhesion assay: [51Cr]-A375M cells to laminin; assay type: cell-based, human
# Procedure: as §1, §2, §3
# 25 μl (about 10,000 cells) were added to each quadruplicate well and the plates incubated at 37° C. in an 8% CO2 atmosphere for 1 hour. Unbound cells were flicked off and the plates were washed twice with PBS/BSA containing 1 mM CaCl2 and 0.5 mM MgCl2. The plates were dabbed dry and cut into individual wells. The radioactivity associated with each well was determined in a gamma counter (1261 Multigamma; Wallac, Sweden). Quadruplicate 25 μl samples of labeled cells were counted as 100% input values. To determine non-specific binding, the ability of cells to bind BSA-coated wells was also assessed. Data for these wells are referred to as background.
# The results were calculated as follows: [formula] [formula] NMR Spectroscopy of RGD Peptides
# The A375M and VUP melanoma cell lines were used with vitronectin and laminin as substrates. Peptides were titrated in 10-fold dilutions from 200 μM to 2 nM. All data were normalized to the absence of peptide, which corresponded to 100% adhesion. All titrations were performed in quadruplicate and each experiment was repeated at least twice.
# αIIbβ3 integrin = target: T1, αIIbβ3 integrin (Homo sapiens, UniProt P05106+P08514); test: ELISA: biotinylated fibrinogen binding to captured soluble αIIbβ3-mFc in the presence of RGD peptides
# T1 construct: chimeras comprising the extracellular domain of αvβ3, αvβ5, α5β1, and αIIbβ3 linked to the Fc domain of either mouse IgG; purchased Celltech plc (supplied, no catalogue number); host or cells: unpurified hybridoma / tissue culture supernatant from secreting cells
# Excerpt: (§6) Four different soluble integrins were supplied by Celltech plc. Soluble forms of αvβ3, αvβ5, α5β1, and αIIbβ3 integrin were generated by constructing chimeras comprising the extracellular domain of αvβ3, αvβ5, α5β1, and αIIbβ3 linked to the Fc domain of either mouse IgG (αvβ3-mFc, αvβ5-mFc, and αIIbβ3-mFc) or human IgG (α5β1-hFc) as described by Stephens et al., Cell Adhes. Commun., 7:377-390 (2000) and Coe et al., J. Biol. Chem., 276:35854-35866 (2001). Since the four soluble integrin chimeras were supplied either as purified proteins (αvβ3-mFc and α5β1-hFc) or as unpurified hybridoma supernatants (αIIbβ3-mFc and αvβ5-mFc), it was necessary to use two types of ELISAs. […] In one type of ELISA (FIGS. 2A and 2B), the immobilized component is a 50 kDa fragment of fibronectin. In the second type of ELISA (FIGS. 2C and 2D), the immobilized component is a goat anti-mFc antibody that is used to capture chimeric proteins so that the RGD binding site of the integrin is maximally exposed. Each three-sided box in FIG. 2 represents a single well of a 96-well plate, and the components are listed in the sequence of their addition to the assay. The immobilized component at the bottom of the well is bound to the well by electrostatic interactions.
# The plates were washed with PBS using a Denley Wellwash 4 Mk 2. Washing was repeated twice with a 400 μl wash per well. 200 μl/well of blocking buffer was then added for 1 hour followed by a repeat washing with PBS. 100 μl of tissue culture supernatant from cells secreting soluble αIIbβ3-mFc or αvβ5-mFc, diluted 1:2 in conjugate buffer, was added to each well. […] After incubation, the plates were washed with PBS as described above. 100 μl of neutravidin-peroxidase was added to each well and the plates were incubated for 30 minutes with shaking, followed by two washes with PBS. 100 μl of TMB substrate was added to each well and the plates were shaken during color development. Plates were read using a plate spectrophotometer at 630 nm.
# (§7) Two negative and two positive controls were used in both types of ELISAs.
# (§8) FIGS. 3-6 illustrate the percent binding of the vitronectin, fibronectin, or fibrinogen ligand to αvβ5, α5β1, αIIbβ3, or αvβ3 integrin in the presence of RGD peptides (i.e., linear (A), cyclic (B), or 4-[^19F]-fluorobenzoyl cyclic (C)) at different concentrations, with 100% maximum signal being the signal obtained in the absence of the peptide.
# αvβ5 integrin = target: T2, αvβ5 integrin (Homo sapiens, UniProt P06756+P18084); test: ELISA: biotinylated vitronectin binding to captured soluble αvβ5-mFc in the presence of RGD peptides
# T2 construct: chimeras comprising the extracellular domain of αvβ3, αvβ5, α5β1, and αIIbβ3 linked to the Fc domain of either mouse IgG; purchased Celltech plc (supplied, no catalogue number); host or cells: unpurified hybridoma / tissue culture supernatant from secreting cells
# T2 sequence (P06756 31-992 limits assumed): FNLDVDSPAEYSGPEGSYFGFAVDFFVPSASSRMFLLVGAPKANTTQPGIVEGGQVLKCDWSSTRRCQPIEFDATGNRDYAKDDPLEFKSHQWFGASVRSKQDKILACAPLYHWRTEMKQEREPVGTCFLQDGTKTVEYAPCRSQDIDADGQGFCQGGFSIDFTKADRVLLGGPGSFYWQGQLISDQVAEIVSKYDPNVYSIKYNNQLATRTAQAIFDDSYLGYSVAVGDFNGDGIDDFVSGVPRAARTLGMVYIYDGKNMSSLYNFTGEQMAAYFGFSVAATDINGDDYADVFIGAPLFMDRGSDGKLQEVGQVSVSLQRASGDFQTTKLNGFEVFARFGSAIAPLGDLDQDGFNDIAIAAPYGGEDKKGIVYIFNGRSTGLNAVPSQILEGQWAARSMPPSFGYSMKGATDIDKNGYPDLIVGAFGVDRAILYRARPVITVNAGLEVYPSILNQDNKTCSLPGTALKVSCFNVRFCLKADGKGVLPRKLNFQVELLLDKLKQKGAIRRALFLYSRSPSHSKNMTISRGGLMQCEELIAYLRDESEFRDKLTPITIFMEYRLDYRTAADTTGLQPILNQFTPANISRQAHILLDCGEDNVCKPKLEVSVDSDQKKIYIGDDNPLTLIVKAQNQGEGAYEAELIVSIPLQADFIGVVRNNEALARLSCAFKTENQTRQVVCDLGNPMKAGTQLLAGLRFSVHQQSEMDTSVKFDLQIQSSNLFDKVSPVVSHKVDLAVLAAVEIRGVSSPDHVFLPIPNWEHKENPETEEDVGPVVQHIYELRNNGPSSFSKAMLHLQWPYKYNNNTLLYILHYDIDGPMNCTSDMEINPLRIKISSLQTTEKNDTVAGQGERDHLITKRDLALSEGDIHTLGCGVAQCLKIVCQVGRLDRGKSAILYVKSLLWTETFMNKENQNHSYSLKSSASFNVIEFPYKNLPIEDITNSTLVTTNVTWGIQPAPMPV
# T2 sequence (P18084 24-719 limits assumed): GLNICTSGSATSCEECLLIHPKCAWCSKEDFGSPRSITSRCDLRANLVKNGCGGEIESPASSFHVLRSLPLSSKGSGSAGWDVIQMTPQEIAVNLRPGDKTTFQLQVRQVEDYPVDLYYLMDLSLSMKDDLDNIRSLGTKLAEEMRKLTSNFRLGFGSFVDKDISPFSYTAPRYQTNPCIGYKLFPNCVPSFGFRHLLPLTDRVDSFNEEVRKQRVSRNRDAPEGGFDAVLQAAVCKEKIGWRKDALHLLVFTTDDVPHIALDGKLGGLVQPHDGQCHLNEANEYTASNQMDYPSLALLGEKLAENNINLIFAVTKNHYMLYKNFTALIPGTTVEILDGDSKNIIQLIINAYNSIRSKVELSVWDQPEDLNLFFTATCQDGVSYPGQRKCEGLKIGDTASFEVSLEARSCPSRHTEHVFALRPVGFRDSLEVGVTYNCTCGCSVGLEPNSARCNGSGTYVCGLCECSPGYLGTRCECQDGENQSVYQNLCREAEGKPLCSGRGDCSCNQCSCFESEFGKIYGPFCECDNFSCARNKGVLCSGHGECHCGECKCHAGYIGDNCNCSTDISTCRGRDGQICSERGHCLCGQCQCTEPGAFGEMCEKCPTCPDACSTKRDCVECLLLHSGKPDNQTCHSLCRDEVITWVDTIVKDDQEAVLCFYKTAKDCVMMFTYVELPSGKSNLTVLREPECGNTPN
# Excerpt: as §6
# To analyze the affinity and selectively of RGD peptides for αIIbβ3 and αvβ5, 96-well ELISA plates were coated with anti-murine Fc antibody at 5 μg/ml in PBS, 100 μl per well and left overnight at 4° C. The plates were washed with PBS using a Denley Wellwash 4 Mk 2. Washing was repeated twice with a 400 μl wash per well. 200 μl/well of blocking buffer was then added for 1 hour followed by a repeat washing with PBS. 100 μl of tissue culture supernatant from cells secreting soluble αIIbβ3-mFc or αvβ5-mFc, diluted 1:2 in conjugate buffer, was added to each well. Plates were incubated with shaking for 1 hour followed by two washes with PBS. 100 μl of an RGD peptide (at concentrations of 200, 20, and 2 μM), followed by either 100 μl of biotinylated fibrinogen (at 1 μg/ml in conjugate buffer) or 100 μl of biotinylated vitronectin (at 2 μg/ml in conjugate buffer) were added to each well and incubated for 2 hours with shaking. After incubation, the plates were washed with PBS as described above. 100 μl of neutravidin-peroxidase was added to each well and the plates were incubated for 30 minutes with shaking, followed by two washes with PBS. 100 μl of TMB substrate was added to each well and the plates were shaken during color development. Plates were read using a plate spectrophotometer at 630 nm.
# (§9) Two negative and two positive controls were used in both types of ELISAs. For example, the negative controls were wells that contained 50 μl of an active control peptide, integrin, and biotinylated ligand or 50 μl of the active control peptide and 50 μl of buffer. These negative control wells typically develop little to no color. […] These wells typically develop the maximum amount of color.
# as §8
# α5β1 integrin = target: T3, α5β1 integrin (Homo sapiens, UniProt P05556+P08648); test: ELISA: soluble α5β1-hFc binding to immobilized 50 kDa fibronectin fragment in the presence of RGD peptides
# T3 construct: chimeras comprising the extracellular domain of αvβ3, αvβ5, α5β1, and αIIbβ3 linked to the Fc domain of either mouse IgG; purchased Celltech plc (supplied, no catalogue number)
# T3 sequence (P08648 42-995 limits assumed): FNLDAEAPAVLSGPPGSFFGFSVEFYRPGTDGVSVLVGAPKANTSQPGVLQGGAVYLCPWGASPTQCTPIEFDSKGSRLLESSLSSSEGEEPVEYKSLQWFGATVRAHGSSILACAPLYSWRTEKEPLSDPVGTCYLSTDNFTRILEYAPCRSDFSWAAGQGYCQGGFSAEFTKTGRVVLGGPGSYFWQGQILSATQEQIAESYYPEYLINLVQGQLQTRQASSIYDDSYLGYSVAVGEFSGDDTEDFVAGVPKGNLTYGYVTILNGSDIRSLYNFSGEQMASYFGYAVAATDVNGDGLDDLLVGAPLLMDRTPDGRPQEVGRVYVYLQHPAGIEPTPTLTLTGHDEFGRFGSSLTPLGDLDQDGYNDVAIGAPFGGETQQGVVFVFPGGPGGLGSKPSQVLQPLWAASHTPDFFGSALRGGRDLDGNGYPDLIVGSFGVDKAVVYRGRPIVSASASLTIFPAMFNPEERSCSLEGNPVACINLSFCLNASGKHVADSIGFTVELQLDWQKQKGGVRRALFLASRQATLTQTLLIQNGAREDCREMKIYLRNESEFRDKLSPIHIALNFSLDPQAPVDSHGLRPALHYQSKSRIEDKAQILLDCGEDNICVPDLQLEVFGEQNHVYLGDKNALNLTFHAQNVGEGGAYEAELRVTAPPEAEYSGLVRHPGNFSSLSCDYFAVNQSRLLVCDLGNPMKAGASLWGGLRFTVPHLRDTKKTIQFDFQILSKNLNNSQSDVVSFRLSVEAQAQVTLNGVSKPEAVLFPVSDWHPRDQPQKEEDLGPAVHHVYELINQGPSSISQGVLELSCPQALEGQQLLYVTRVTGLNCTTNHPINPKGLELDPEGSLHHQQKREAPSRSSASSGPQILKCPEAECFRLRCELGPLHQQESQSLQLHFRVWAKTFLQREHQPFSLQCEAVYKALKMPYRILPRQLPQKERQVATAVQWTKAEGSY
# T3 sequence (P05556 21-728 limits assumed): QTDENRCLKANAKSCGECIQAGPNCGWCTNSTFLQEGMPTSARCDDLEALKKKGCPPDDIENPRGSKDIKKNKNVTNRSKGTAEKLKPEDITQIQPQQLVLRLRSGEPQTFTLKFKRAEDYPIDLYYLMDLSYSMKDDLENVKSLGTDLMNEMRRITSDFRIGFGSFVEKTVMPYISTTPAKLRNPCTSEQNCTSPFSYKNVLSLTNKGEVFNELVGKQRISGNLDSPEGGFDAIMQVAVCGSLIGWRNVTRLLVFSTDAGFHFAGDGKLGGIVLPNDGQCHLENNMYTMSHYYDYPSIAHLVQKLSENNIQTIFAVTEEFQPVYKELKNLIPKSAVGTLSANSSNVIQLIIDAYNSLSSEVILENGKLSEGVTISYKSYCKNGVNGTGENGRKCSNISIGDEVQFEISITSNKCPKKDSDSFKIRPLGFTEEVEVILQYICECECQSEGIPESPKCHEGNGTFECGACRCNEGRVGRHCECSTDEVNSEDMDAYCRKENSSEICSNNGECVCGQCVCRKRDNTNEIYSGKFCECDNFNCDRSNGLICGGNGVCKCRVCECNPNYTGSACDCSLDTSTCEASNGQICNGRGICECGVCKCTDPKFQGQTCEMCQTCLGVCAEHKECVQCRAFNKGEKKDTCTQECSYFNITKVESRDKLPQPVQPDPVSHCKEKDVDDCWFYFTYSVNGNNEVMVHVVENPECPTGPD
# Excerpt: as §6
# To analyze the affinity and selectively of RGD peptides for αvβ3 and α5β1, 96-well ELISA plates were coated with 100 μl of a 5 μg/ml of the 50 kDa fragment of fibronectin in PBS per well and left overnight at 4° C. The plates were washed with PBS using a Denley Wellwash 4 Mk 2. Washing was repeated twice with a 400 μl wash per well. 200 μ/well of blocking buffer (i.e., to prevent non-specific binding of proteins) was then added for 1 hour followed by a repeat washing with PBS. RGD peptides were then added at a maximum concentration of 200 μM and a preliminary screen was performed at three concentrations, 200,20, and 2 μM. 100 μl of an RGD peptide was added to each well and each assay was performed in triplicate. Purified soluble αvβ3-mFc or purified α5β1-hFc was diluted to 2 μg/ml and 15 ng/ml, respectively, in conjugate buffer and 100 μl was added to each well. The plates were incubated for 2 hours with shaking using a Luckham R100 Rotatest at approximately 150 rpm. After incubation, the plates were washed with PBS as previously described and a labeled antibody was added. For the αvβ3 assay, a horseradish peroxidase (HRP)-labeled F(ab′)2 fragment of goat anti-mouse IgG Fc was diluted 1:2000 in conjugate buffer and 100 μl was added to each well. For the α5β1 assay, an HRP-labeled F(ab′)2 fragment of goat anti-human IgG Fc was diluted 1:2000 in conjugate buffer and 100 μl was added to each well. Plates were incubated for 30 minutes with shaking followed by 2 washes with PBS. 100 μl of TMB substrate was added to each well and plates were shaken during a 10 minute color development. Plates were read using a plate spectrophotometer at 630 nm.
# as §9, §8
# αvβ3 integrin = target: T4, αvβ3 integrin (Homo sapiens, UniProt P05106+P06756); test: ELISA: soluble αvβ3-mFc binding to immobilized 50 kDa fibronectin fragment in the presence of RGD peptides
# T4 construct: chimeras comprising the extracellular domain of αvβ3, αvβ5, α5β1, and αIIbβ3 linked to the Fc domain of either mouse IgG; purchased Celltech plc (supplied, no catalogue number)
# T4 sequence (P06756 31-992 limits assumed): as the sequence (P06756 31-992 limits assumed) above
# T4 sequence (P05106 27-718 limits assumed): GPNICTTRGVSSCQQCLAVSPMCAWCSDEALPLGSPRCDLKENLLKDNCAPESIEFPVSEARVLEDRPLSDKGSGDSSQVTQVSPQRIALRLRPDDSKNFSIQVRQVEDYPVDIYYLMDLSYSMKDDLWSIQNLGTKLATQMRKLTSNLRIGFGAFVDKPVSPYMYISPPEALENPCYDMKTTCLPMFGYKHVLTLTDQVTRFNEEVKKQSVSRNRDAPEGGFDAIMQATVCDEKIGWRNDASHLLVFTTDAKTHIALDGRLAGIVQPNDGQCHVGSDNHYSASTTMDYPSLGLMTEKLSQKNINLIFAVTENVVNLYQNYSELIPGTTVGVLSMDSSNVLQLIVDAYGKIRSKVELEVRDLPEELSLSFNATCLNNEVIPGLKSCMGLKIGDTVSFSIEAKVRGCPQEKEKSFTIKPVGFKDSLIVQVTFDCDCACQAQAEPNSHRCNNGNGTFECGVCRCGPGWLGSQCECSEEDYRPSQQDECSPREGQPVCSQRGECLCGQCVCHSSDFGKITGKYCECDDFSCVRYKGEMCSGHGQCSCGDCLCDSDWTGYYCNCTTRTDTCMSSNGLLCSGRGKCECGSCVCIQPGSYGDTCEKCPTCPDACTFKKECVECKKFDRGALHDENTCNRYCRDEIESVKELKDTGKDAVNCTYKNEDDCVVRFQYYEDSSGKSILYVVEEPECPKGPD
# Excerpt: as §6
# The plates were washed with PBS using a Denley Wellwash 4 Mk 2. Washing was repeated twice with a 400 μl wash per well. […] Plates were read using a plate spectrophotometer at 630 nm.
# as §7, §8
# A375M melanoma cell line [3] = test: Adhesion assay: [51Cr]-A375M cells to vitronectin; assay type: cell-based, human; conditions: 20 μM peptide
# Procedure: as §1, §2
# (§10) Sodium [^51Cr] chromate was purchased from Amersham International, UK. […]
# as §4, with “Unbound cells were flicked off and the plates were washed twice with PBS/BSA containing 1 mM CaCl2 and 0.5 mM MgCl2. The plates were dabbed dry and cut into individual wells.” left out
# as §5
# VUP melanoma cell line [4] = test: Adhesion assay: [51Cr]-VUP cells to vitronectin; assay type: cell-based; conditions: 20 μM peptide
# Procedure: as §1, §2, §10
# as §4, with “Unbound cells were flicked off and the plates were washed twice with PBS/BSA containing 1 mM CaCl2 and 0.5 mM MgCl2. The plates were dabbed dry and cut into individual wells.” left out
# as §5
# [5] = control peptide, concentration not given
# [6] = preliminary screen 2, 20, 200 μM
substance,measurement,setting,value
GRGDSP [reference compound],"adhesion of [51Cr]-VUP cells to laminin, normalized to absence of peptide (100%)",VUP melanoma cell line [1]; [5],49.29%±2.74% and 43.05%±7.66%
same,"adhesion of [51Cr]-A375M cells to laminin, normalized to absence of peptide (100%)",A375M melanoma cell line [2]; 200 μM peptide,13.51%±1.25%
same,"adhesion of [51Cr]-A375M cells to laminin, normalized to absence of peptide (100%)",A375M melanoma cell line [2]; [5],62.05%±1.88%
"H-KPQVTRGDVFTEG-NH2 [A11, linear peptide, reference compound]",effect on the binding of fibrinogen to αIIbβ3,αIIbβ3 integrin; 20 μM,significant effect
same,effect on the binding of vitronectin to αvβ5,αvβ5 integrin; [6],no effect
same,effect on the binding of fibronectin to α5β1,α5β1 integrin; [6],no effect
same,effect on fibronectin binding to αvβ3,αvβ3 integrin; 2 μM,little effect
same,"fibronectin binding to αvβ3, % of the maximum signal",αvβ3 integrin; 20 μM peptide,58.7%
RGDY(OMe)K [A7],"adhesion of [51Cr]-A375M cells to vitronectin, normalized to absence of peptide (100%)",A375M melanoma cell line [3],106.99±1.66%
same,effect on αvβ5 binding to vitronectin,αvβ5 integrin; 2 μM and 20 μM,little effect
same,effect on α5β1 binding to fibronectin,α5β1 integrin; 2 μM and 20 μM,little effect
same,"adhesion of [51Cr]-VUP cells to vitronectin, normalized to absence of peptide (100%)",VUP melanoma cell line [4],78.65%±3.98%
same,"adhesion of [51Cr]-VUP cells to laminin, normalized to absence of peptide (100%)",VUP melanoma cell line [1]; highest concentration (200 μM),64.17%±1.31%
same,"adhesion of [51Cr]-A375M cells to laminin, normalized to absence of peptide (100%)",A375M melanoma cell line [2]; 200 μM peptide,75.08%±1.53%
RGDY(OMe)KE [C1],selectivity for αIIbβ3 integrin,αIIbβ3 integrin,high selectivity for αIIbβ3 integrin
same,fibrinogen binding to αIIbβ3,αIIbβ3 integrin; 2 nM peptide,59%
same,effect on the binding of αIIbβ3 to fibrinogen,αIIbβ3 integrin; nanomolar concentrations,significant effect

# Reference: patent publication US20060029544A1, “Receptor-binding cyclic peptides and methods of use” (The Regents of the University of California Office of …, priority 2004, published 2006)
